The values that follow come from ChEMBL document CHEMBL4477163, “Rubiaceae-Type Cyclopeptides from Galianthe thalictroides” (2016).

≈ marks a conversion by molar mass, not a printed value.

What all share (assay type): functional
One assay concerns HT-29. Kind of assay: Cytotoxicity against human HT-29 cells by sulforhodamine B assay.
Another assay has as its system 786-0. Kind of assay: Cytotoxicity against human 786-0 cells by sulforhodamine B assay.
A further assay concerns PC-3. Kind of assay: Cytotoxicity against human PC3 cells by sulforhodamine B assay.
The subject of the next assay is P388. Kind of assay: Cytotoxicity against mouse P388 cells at 1 mg/ml relative to control.

With `COc1cccc2c1C(=O)c1c(O)c3c(c(O)c1C2=O)C[C@@](O)(C(=O)CO)C[C@@H]3O[C@H]1C[C@H](N)[C@H](O)[C@H](C)O1` [DOXORUBICIN], the 50% growth inhibitory concentration (GI50) is 0.27 µg/mL (≈ 0.497 µM) with HT-29, 0.02 µg/mL (≈ 0.0368 µM) in the assay on 786-0 and 0.35 µg/mL (≈ 0.644 µM) in the assay on PC-3.

Regarding `COc1ccc(C[C@H]2C(=O)N[C@@H](C)C(=O)N(C)[C@@H]3C(=O)N(C)[C@@H](Cc4ccc(OC)c(c4)Oc4ccc(cc4)[C@@H]3O)C(=O)N[C@H](C)C(=O)N[C@@H](CO)C(=O)N2C)cc1`, the figures for the GI50 in the assay with HT-29, in the assay on 786-0 and with PC-3 were 1.8 µg/mL (≈ 2.24 µM), 1.14 µg/mL (≈ 1.42 µM) and 0.26 µg/mL (≈ 0.324 µM), respectively.

Turning to `COc1ccc(C[C@H]2C(=O)N[C@@H](C)C(=O)N(C)[C@@H]3C(=O)N(C)[C@@H](Cc4ccc(OC)c(c4)Oc4ccc(cc4)[C@@H]3O)C(=O)N[C@H](C)C(=O)N[C@@H](C)C(=O)N2C)cc1`, the 50% growth inhibitory concentration (GI50) in the assay with HT-29 was 0.07 µg/mL (≈ 0.089 µM); with 786-0 it was 0.07 µg/mL (≈ 0.089 µM); in the assay with PC-3 it was 0.06 µg/mL (≈ 0.0763 µM). Also, in the assay with P388, the T/C is 134%.
